Source: paper PMC4809294, “STP10 encodes a high-affinity monosaccharide transporter and is induced under low-glucose conditions in pollen tubes of Arabidopsis” (Journal of Experimental Botany, 2016)

Key:
STP10 (AtSTP10) [1] = target: T1, STP10 (AtSTP10) (Arabidopsis thaliana, UniProt Q9LT15); assay: competition of […]glucose uptake in STP10-expressing yeast; format: cell-based; settings: 10 µM [14C]glucose, 10-fold excess (100 µM) unlabelled competitor
T1 sequence (Q9LT15 1-514): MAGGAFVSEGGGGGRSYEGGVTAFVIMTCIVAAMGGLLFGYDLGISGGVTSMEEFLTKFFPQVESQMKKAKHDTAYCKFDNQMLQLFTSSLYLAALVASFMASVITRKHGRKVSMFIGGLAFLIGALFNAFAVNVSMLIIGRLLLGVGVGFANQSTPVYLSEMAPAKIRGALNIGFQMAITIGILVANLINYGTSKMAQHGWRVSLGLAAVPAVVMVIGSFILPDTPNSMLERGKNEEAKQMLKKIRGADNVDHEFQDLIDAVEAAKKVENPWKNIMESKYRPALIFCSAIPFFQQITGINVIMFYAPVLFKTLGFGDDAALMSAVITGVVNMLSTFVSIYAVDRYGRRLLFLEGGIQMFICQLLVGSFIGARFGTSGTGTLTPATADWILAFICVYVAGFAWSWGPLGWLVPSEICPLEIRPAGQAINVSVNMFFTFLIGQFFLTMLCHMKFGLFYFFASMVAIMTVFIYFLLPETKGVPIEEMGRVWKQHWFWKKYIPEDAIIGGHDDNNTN

STP10 (AtSTP10) [2] = target: T1, STP10 (AtSTP10); assay: competition of […]glucose uptake in STP10-expressing yeast; also direct […]galactose uptake; format: cell-based; settings: 10 µM [14C]glucose, 10-fold excess (100 µM) unlabelled competitor

Row | % remaining [14C]glucose uptake (STP10 (AtSTP10) [1]) | % remaining [14C]glucose uptake (STP10 (AtSTP10) [2]) | Structure (SMILES)
1 | 64% | – | OC[C@H]1OC(O)[C@@H](O)[C@@H](O)[C@@H]1O (some centres unmarked) [mannose]
2 | – | 41% | OC[C@H]1OC(O)[C@H](O)[C@@H](O)[C@H]1O (some centres unmarked) [galactose]
